This passage reports inhibition results from patent US10940139B2, “Compounds that interact with the Ras superfamily for the treatment of cancers, inflammatory diseases, rasopathies, and fibrotic disease” (Shy Therapeutics LLC, priority 2017, dated 2021).

Assay [1] deals with TNFα production in RAW 264.7 macrophage cell line. Kind of assay: Mouse TNF alpha quantification assay (LPS-stimulated macrophages, ELISA). Type of assay: cell-based. The following applies: RAW264.7, RAW 264.7 murine leukemia virus transformed macrophage cell lines, LPS stimulation, read-out: TNF-α % Inhibition at 30 μM.
Assay [2] has as its system IL6 production in RAW 264.7 macrophage cell line. Nature of the assay: Mouse IL6 quantification assay (LPS-stimulated macrophages, ELISA). Type of assay: cell-based. The following applies: RAW264.7, RAW 264.7 murine leukemia virus transformed macrophage cell lines, LPS stimulation, read-out: IL-6 % Inhibition at 30 μM. In general terms: An ELISA detects its analyte on a solid surface through an enzyme-linked reagent.

On to `N#Cc1ncn(-c2nc(-c3ccccn3)nc3sc(-c4ccccc4)cc23)n1` [drawing 2132], for which the inhibition at 30 µM in assay [1] and in assay [2] was 76 to 100% in each case.
With `COCCCNc1nc(-c2nccn2C)nc2sc(-c3ccccc3)c(-c3ccccc3)c12` [drawing 2397], the inhibition at 30 µM in assay [1] and in assay [2] was 76 to 100% in each case.
Take `Cn1ccnc1-c1nc(O)c2c(-c3ccccc3)c(-c3ccccc3)sc2n1` [drawing 2363]: the results for the inhibition at 30 µM in assay [1] and in assay [2] were 26 to 50% and 1 to 25%, respectively.
For the compound `CCC(C)(C)c1ccc(OCCCC(=O)NC(C(=O)OC)C(C)C)c(C(C)(C)CC)c1` (stereo not shown) [drawing 2054], the inhibition at 30 µM in assay [1] and in assay [2] was 26 to 50% each time.
For the compound `CC(C)c1noc(CCCC(=O)Nc2nnc(-c3ccccn3)[nH]2)n1` [drawing 1951], the inhibition (in general, the drop in the measured response relative to a control, in per cent) at 30 µM in assay [1] is 1 to 25%; in assay [2], 0%.
Regarding `COc1ccc(CCC(=O)Nc2nc(-c3ccccn3)nc3sccc23)cn1` [drawing 2330], the inhibition at 30 µM lay within 51 to 75% in assay [1] and 76 to 100% in assay [2].
For `Oc1nc(-c2ccccn2)nc2c(-c3cc(C(F)(F)F)ccc3F)csc12` [drawing 2303], in that order: 1 to 25% and 76 to 100%.
Turning to `COc1ccccc1C1CN(C(=O)c2csc3c(O)nc(-c4ccccn4)nc23)CCN1` (stereo not shown) [drawing 2196], the inhibition at 30 µM is 0% in assay [1] and 26 to 50% in assay [2].
For `CSc1nc(C2CC2)cc(C(=O)NCCc2ccc(S(=O)(=O)NC(=O)c3cc(C4CC4)nc(SC)c3C#N)cc2)c1C#N` [drawing 2067], in that order: 26 to 50% and 1 to 25%.
For `O=C(c1csc2c(O)nc(-c3ccccn3)nc12)N1CCNC(Cc2ccccc2)C1` (stereo not shown) [drawing 2202], in that order: 1 to 25% and 76 to 100%.
For `Cc1cccc(CN(Cc2ccccn2)Cc2nccn2C)c1` [drawing 2048], the inhibition at 30 µM in assay [1] is 1 to 25%; in assay [2], 26 to 50%.
For `COc1nc(-c2ccccn2)nc(Oc2cccc(C(F)(F)F)c2)c1OC` [drawing 2379], in that order: 1 to 25% and 1 to 25%.
For `N#Cc1ccc(CC(=O)Nc2ccnc(-c3ccccn3)n2)cc1` [drawing 2125], in that order: 1 to 25% and 1 to 25%.
In the same order, the values of `O=C(c1csc2c(O)nc(-c3ccccn3)nc12)N1CCC(c2cccc(O)c2)C1` (stereo not shown) [drawing 2233] are 26 to 50% and 76 to 100%.
For the compound `Oc1nc(-c2ccccn2)nc2c1ncn2-c1ccccc1` [drawing 2123], the inhibition at 30 µM in assay [1] is 0%; in assay [2] it was 1 to 25%.
On to `Cc1cnccc1-c1csc2c(O)nc(-c3ccccn3)nc12` [drawing 2280], for which the inhibition at 30 µM in assay [1] fell in the range of 26 to 50%; in assay [2], 76 to 100%.
In the same order, the values of `COc1cnc(CNC(=O)c2sc3c(O)nc(-c4ccccn4)nc3c2C)[nH]c1=O` [drawing 2351] are 1 to 25% and 1 to 25%.
For `O=C(Nc1nnc(-c2ccccn2)[nH]1)C1CCCN(c2ncccn2)C1` (stereo not shown) [drawing 1969], in that order: 1 to 25% and 0%.
In the same order, the values of `COC(C)(C)c1ccc(-c2csc3c(O)nc(-c4nccn4C)nc23)cc1` [drawing 2445] are 0% and 26 to 50%.
Consider `Cc1cc(C(=O)Nc2nc(-c3ccccn3)cs2)no1` [drawing 2009], for which the inhibition at 30 µM in assay [1] was 0%; in assay [2], 76 to 100%.
On to `Cc1sc2c(O)nc(-c3ccccn3)nc2c1-c1ccncc1` [drawing 2331], for which the inhibition at 30 µM in assay [1] is 0%; in assay [2] it was 26 to 50%.
For `N#Cc1ccccc1OCC(=O)Nc1nnc(-c2ccccn2)[nH]1` [drawing 1954], in that order: 0% and 1 to 25%.
Turning to `COc1cccc(CC(=O)Nc2nnc(-c3ccccn3)[nH]2)c1` [drawing 1933], the figures for the inhibition at 30 µM in assay [1] and in assay [2] were 1 to 25% and 26 to 50%, respectively.
For `Oc1nc(-c2ccccn2)nc2c(-c3ccc(F)cc3F)csc12` [drawing 2263], in that order: 26 to 50% and 76 to 100%.
For `COc1ccnc(-c2nc(O)c3c(Br)csc3n2)c1` [drawing 2172], in that order: 26 to 50% and 76 to 100%.
On to `Cc1cc2nc(-c3ccccn3)nc(N)c2s1` [drawing 2229], for which the inhibition at 30 µM in assay [1] and in assay [2] was 1 to 25% each time.
Take `Cn1cnc(-c2nc(O)c3scc(-c4cccc(OC(F)(F)F)c4)c3n2)c1` [drawing 2433]: the inhibition at 30 µM in assay [1] and in assay [2] was 0% each time.
On to `O=C(Nc1nnc(-c2ccccn2)[nH]1)C1Cc2cc(Cl)ccc2O1` (stereo not shown) [drawing 1995], for which the inhibition at 30 µM lay within 1 to 25% in assay [1] and 51 to 75% in assay [2].
With `O=C(CCc1nn[nH]n1)Nc1nc(-c2ccccn2)nc2sccc12` [drawing 2282], the results for the inhibition at 30 µM in assay [1] and in assay [2] were 0% and 1 to 25%, respectively.
For `Cc1nc2nc(C(F)(F)F)nn2c(C)c1CC(=O)Nc1nnc(-c2ccccn2)[nH]1` [drawing 1984], the inhibition at 30 µM in assay [1] was 1 to 25%; in assay [2], 0%.
For `O=C(Nc1nnc(-c2ccccn2)[nH]1)c1ccc2c(c1)CCO2` [drawing 1930], the inhibition at 30 µM is 0% in assay [1] and 1 to 25% in assay [2].
In the same order, the values of `Cc1sc2c(O)nc(-c3nccn3C)nc2c1-c1ccc(F)cc1F` [drawing 2448] are 0% and 51 to 75%.
For `O=C(COCc1ccccc1Cl)Nc1nnc(-c2ccccn2)[nH]1` [drawing 1973], in that order: 1 to 25% and 26 to 50%.
As for `OCC1(c2ccc(-c3csc4c(O)nc(-c5ccccn5)nc34)cc2)CC1` [drawing 2278], the inhibition at 30 µM was in the range of 1 to 25% in assay [1] and 76 to 100% in assay [2].
On to `COc1nccc(CCNC(=O)c2csc3nc(-c4ccccn4)nc(N4CCOCC4)c23)n1` [drawing 2289], for which the inhibition at 30 µM in assay [1] is 0%; in assay [2], 26 to 50%.
For `CC(C)(C)c1ccc(-c2csc3c(O)nc(-c4ccccn4)nc23)cc1` [drawing 2240], in that order: 76 to 100% and 76 to 100%.
In the same order, the values of `Oc1nc(-c2ccccn2)nc2c(-c3cnc4ccccc4c3)csc12` [drawing 2300] are 1 to 25% and 76 to 100%.
In the same order, the values of `OCCNc1nc(-c2ccccn2)nc2scc(-c3ccccc3)c12` [drawing 2038] are 0% and 1 to 25%.
As to `Oc1nc(-c2ccccn2)nc2c(-c3cncc(C(F)(F)F)c3)csc12` [drawing 2304], the inhibition at 30 µM in assay [1] is 0%; in assay [2], 1 to 25%.
In the same order, the values of `Cc1sc2c(O)nc(-c3ccccn3)nc2c1-c1ccccc1` [drawing 2297] are 76 to 100% and 76 to 100%.
In the same order, the values of `O=C(c1csc2c(O)nc(-c3ccccn3)nc12)N1CCNC(c2ccccc2Cl)C1` (stereo not shown) [drawing 2216] are 0% and 51 to 75%.
